One may read the IC50 as the point on the concentration scale where inhibition reaches its midpoint.

Drawing on patent US11136296B2, “Substituted N-arylethyl-2-arylquinoline-4-carboxamides and use thereof” (Bayer Aktiengesellschaft, priority 2017, dated 2021), this text covers IC50 for 22 compounds.

In this assay the target is FP receptor (Homo sapiens (Human), UniProt P43088). Kind of assay: In vitro test of inhibition of human FP receptor activity (PGF2α-induced calcium flux in FP-expressing CHEM1 cells). Type of assay: cell-based. The note with it: PGF2α-induced (2 nM) calcium flux in FP-expressing CHEM1 cells; some as mean values from multiple determinations. The text has this: Table 1 below lists the IC50 values from this assay for individual working examples of the invention (some as mean values from multiple independent individual determinations): […]
Chain of FP receptor (P43088 whole entry): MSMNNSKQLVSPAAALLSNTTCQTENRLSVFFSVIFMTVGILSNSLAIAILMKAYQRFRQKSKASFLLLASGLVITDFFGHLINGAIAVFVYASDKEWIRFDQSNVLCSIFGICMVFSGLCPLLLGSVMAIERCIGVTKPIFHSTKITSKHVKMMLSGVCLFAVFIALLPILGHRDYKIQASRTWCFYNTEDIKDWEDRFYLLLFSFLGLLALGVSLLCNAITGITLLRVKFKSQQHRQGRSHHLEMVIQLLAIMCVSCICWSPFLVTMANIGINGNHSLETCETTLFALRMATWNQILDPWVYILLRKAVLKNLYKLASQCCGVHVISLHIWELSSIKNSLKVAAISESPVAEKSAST
As for `COc1cccnc1C(CNC(=O)c1c(C)c(-c2ccccc2)nc2ccc(Br)cc12)CC(=O)O` (racemic) [Example 108, (+/−)-4-{[(6-Bromo-3-methyl-2-phenylquinolin-4-yl)carbonyl]amino}-3-(3-methoxypyridin-2-yl)butanoic Acid], the half-inhibitory concentration (IC50) turned out to be 78 nM.

On to `Cc1c(-c2ccccc2)nc2ccc(Br)cc2c1C(=O)NCC(c1ccccc1Cl)C(C)(C)C(=O)O` (racemic) [Example 111, (+/−)-4-{[(6-Bromo-3-methyl-2-phenylquinolin-4-yl)carbonyl]amino}-3-(2-chlorophenyl)-2,2-dimethylbutanoic Acid], for which the half-maximal inhibitory concentration (IC50) came to 89 nM.

With `Cc1c(-c2ccccc2)nc2ccc(Br)cc2c1C(=O)NCC(C)(CC(=O)O)c1ccccc1Cl` (racemic) [Example 114, (+/−)-4-{[(6-Bromo-3-methyl-2-phenylquinolin-4-yl)carbonyl]amino}-3-(2-chlorophenyl)-3-methylbutanoic Acid], the 50% inhibitory concentration (IC50) turned out to be 18 nM.

For the compound `Cc1c(-c2ccccc2)nc2ccc(Br)cc2c1C(=O)NCC(C)(CC(=O)O)c1ccccn1` (racemic) [Example 117, (+/−)-4-{[(6-Bromo-3-methyl-2-phenylquinolin-4-yl)carbonyl]amino}-3-methyl-3-(pyridin-2-yl)butanoic Acid], the IC50 was 240 nM.

On to `COc1ccccc1C(C)(CNC(=O)c1c(C)c(-c2ccccc2)nc2ccc(Br)cc12)CC(=O)O` (racemic) [Example 120, (+/−)-4-{[(6-Bromo-3-methyl-2-phenylquinolin-4-yl)carbonyl]amino}-3-(2-methoxyphenyl)-3-methylbutanoic Acid], for which the IC50 came to 30 nM.

Regarding `COc1ccc(F)cc1C(CNC(=O)c1c(C)c(-c2ccccc2)nc2ccc(Br)cc12)CC(=O)O` (racemic) [Example 123, (+/−)-4-{[(6-Bromo-3-methyl-2-phenylquinolin-4-yl)carbonyl]amino}-3-(5-fluoro-2-methoxyphenyl)butanoic Acid], the half-maximal inhibitory concentration (IC50) was 11 nM.

Regarding `COc1cccc(F)c1C(CNC(=O)c1c(C)c(-c2ccccc2)nc2ccc(Br)cc12)CC(=O)O` (racemic) [Example 126, (+/−)-4-{[(6-Bromo-3-methyl-2-phenylquinolin-4-yl)carbonyl]amino}-3-(2-fluoro-6-methoxyphenyl)butanoic Acid], the IC50 came to 39 nM.

For the compound `CCOc1ccccc1C(CNC(=O)c1c(C)c(-c2ccccc2)nc2ccc(Br)cc12)CC(=O)O` (racemic) [Example 129, (+/−)-4-{[(6-Bromo-3-methyl-2-phenylquinolin-4-yl)carbonyl]amino}-3-(2-ethoxyphenyl)butanoic Acid], the IC50 worked out at 130 nM.

Regarding `COc1ccc(F)cc1C(C)(CNC(=O)c1c(C)c(-c2ccccc2)nc2ccc(Br)cc12)CC(=O)O` (racemic) [Example 132, (+/−)-4-{[(6-Bromo-3-methyl-2-phenylquinolin-4-yl)carbonyl]amino}-3-(5-fluoro-2-methoxyphenyl)-3-methylbutanoic Acid], the IC50 came out at 32 nM.

Turning to `COc1c(F)cc(F)cc1C(C)(CNC(=O)c1c(C)c(-c2ccccc2)nc2ccc(Br)cc12)CC(=O)O` (racemic) [Example 135, (+/−)-4-{[(6-Bromo-3-methyl-2-phenylquinolin-4-yl)carbonyl]amino}-3-(3,5-difluoro-2-methoxyphenyl)-3-methylbutanoic Acid], the 50% inhibitory concentration (IC50) came to 13 nM.

With `COc1cc(F)ccc1C(C)(CNC(=O)c1c(C)c(-c2ccccc2)nc2ccc(Br)cc12)CC(=O)O` (racemic) [Example 138, (+/−)-4-{[(6-Bromo-3-methyl-2-phenylquinolin-4-yl)carbonyl]amino}-3-(4-fluoro-2-methoxyphenyl)-3-methylbutanoic Acid], the 50% inhibitory concentration (IC50) was 42 nM.

With `COc1ccccc1C(CNC(=O)c1c(C)c(-c2ccccc2)nc2ccc(Br)cc12)C(F)(F)C(=O)O` (racemic) [Example 141, (+/−)-4-{[(6-Bromo-3-methyl-2-phenylquinolin-4-yl)carbonyl]amino}-2,2-difluoro-3-(2-methoxyphenyl)butanoic Acid], the IC50 is 24 nM.

As to `COc1cccc(F)c1C(C)(CNC(=O)c1c(C)c(-c2ccccc2)nc2ccc(Br)cc12)CC(=O)O` (racemic) [Example 142, (+/−)-4-{[(6-Bromo-3-methyl-2-phenylquinolin-4-yl)carbonyl]amino}-3-(2-fluoro-6-methoxyphenyl)-3-methylbutanoic Acid], the concentration for half-maximal inhibition (IC50) was 15 nM.

With `Cc1c(-c2ccccc2)nc2ccc(Br)cc2c1C(=O)NC(C)C(CC(=O)O)c1ccccc1Cl` (racemic) [Example 145, (+/−)-4-{[(6-Bromo-3-methyl-2-phenylquinolin-4-yl)carbonyl]amino}-3-(2-chlorophenyl)pentanoic Acid], the IC50 amounted to 49 nM.

Turning to `Cc1c(-c2ccccc2)nc2ccc(Br)cc2c1C(=O)NC(C)C(CC(=O)O)c1ccccc1Cl` (racemic) [Example 148, (+/−)-4-{[(6-Bromo-3-methyl-2-phenylquinolin-4-yl)carbonyl]amino}-3-(2-chlorophenyl)pentanoic Acid], the IC50 came out at 42 nM.

`Cc1c(-c2ccccc2)nc2ccc(Br)cc2c1C(=O)NCC(CCC(=O)O)c1ccccc1Cl` (racemic) [Example 151, (+/−)-5-{[(6-Bromo-3-methyl-2-phenylquinolin-4-yl)carbonyl]amino}-4-(2-chlorophenyl)pentanoic Acid]: the half-inhibitory concentration (IC50) is 7.8 nM.

In the case of `Cc1c(-c2ccccc2)nc2ccc(Br)cc2c1C(=O)NCC(C)(CCC(=O)O)c1ccccc1Cl` (racemic) [Example 154, (+/−)-5-{[(6-Bromo-3-methyl-2-phenylquinolin-4-yl)carbonyl]amino}-4-(2-chlorophenyl)-4-methylpentanoic Acid], the IC50 came out at 15 nM.

`Cc1c(-c2ccccc2)nc2ccc(Br)cc2c1C(=O)NCC(CCC(=O)O)c1c(F)cccc1Cl` (racemic) [Example 157, (+/−)-5-{[(6-Bromo-3-methyl-2-phenylquinolin-4-yl)carbonyl]amino}-4-(2-chloro-6-fluorophenyl)pentanoic Acid]: the IC50 is 3.7 nM.

As for `Cc1ccccc1C(CCC(=O)O)CNC(=O)c1c(C)c(-c2ccccc2)nc2ccc(Br)cc12` (racemic) [Example 160, (+/−)-5-{[(6-Bromo-3-methyl-2-phenylquinolin-4-yl)carbonyl]amino}-4-(2-methylphenyl)pentanoic Acid], the IC50 was 13 nM.

In the case of `Cc1c(-c2ccccc2)nc2ccc(Br)cc2c1C(=O)NCC(CCC(=O)O)c1cc(F)ccc1Cl` (racemic) [Example 163, (+/−)-5-{[(6-Bromo-3-methyl-2-phenylquinolin-4-yl)carbonyl]amino}-4-(2-chloro-5-fluorophenyl)pentanoic Acid], the half-maximal inhibitory concentration (IC50) was determined as 8.7 nM.

For `COc1ccccc1C(CCC(=O)O)CNC(=O)c1c(C)c(-c2ccccc2)nc2ccc(Br)cc12` (racemic) [Example 166, (+/−)-5-{[(6-Bromo-3-methyl-2-phenylquinolin-4-yl)carbonyl]amino}-4-(2-methoxyphenyl)pentanoic Acid], the IC50 was determined as 6.1 nM.

As to `Cc1c(-c2ccccc2)nc2ccc(Br)cc2c1C(=O)NCC(C)(CCC(=O)O)c1cc(F)ccc1Cl` (racemic) [Example 169, (+/−)-5-{[(6-Bromo-3-methyl-2-phenylquinolin-4-yl)carbonyl]amino}-4-(2-chloro-5-fluorophenyl)-4-methylpentanoic Acid], the IC50 was 26 nM.
